{
  "source": "patent US20100022491A1",
  "about": "“4-HYDROXY-2-OXO-2,3-DIHYDRO-1,3-BENZOTHIAZOL-7YL COMPOUNDS FOR MODULATION OF B2-ADRENORECEPTOR ACTIVITY” (ASTRAZENECA AB, priority 2006, published 2010)",
  "molecular_target": "T1, recombinant human α1D receptor (Homo sapiens, UniProt P25100)",
  "T1 construct": "expressed in transfected cells; host or cells: HEK293",
  "T1 sequence (P25100 1-572)": "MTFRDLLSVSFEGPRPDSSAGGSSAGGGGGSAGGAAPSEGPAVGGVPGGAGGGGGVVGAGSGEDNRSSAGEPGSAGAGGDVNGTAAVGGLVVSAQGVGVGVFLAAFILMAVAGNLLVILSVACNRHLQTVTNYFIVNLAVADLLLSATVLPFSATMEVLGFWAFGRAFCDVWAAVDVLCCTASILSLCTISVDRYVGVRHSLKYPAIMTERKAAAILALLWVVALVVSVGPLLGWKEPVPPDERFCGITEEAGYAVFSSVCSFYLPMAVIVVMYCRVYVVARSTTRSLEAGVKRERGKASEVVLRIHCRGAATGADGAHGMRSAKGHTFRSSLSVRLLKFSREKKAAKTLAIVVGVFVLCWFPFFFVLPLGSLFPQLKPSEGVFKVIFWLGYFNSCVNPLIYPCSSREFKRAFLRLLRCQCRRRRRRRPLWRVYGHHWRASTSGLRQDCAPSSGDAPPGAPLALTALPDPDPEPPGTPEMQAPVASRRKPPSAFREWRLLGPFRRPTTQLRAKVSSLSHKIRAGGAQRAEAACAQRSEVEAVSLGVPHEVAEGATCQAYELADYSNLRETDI",
  "experiment": "Adrenergic α1D selectivity binding assay ([3H]-prazosin)",
  "settings": "inhibition of [3H]-prazosin (0.3 nM) binding, HEK293 membranes; for IC50: read-out: α1 bind pIC50 (converted)",
  "how_it_was_run": "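Displacement of [3H]-prazosin (0.3 nM) from recombinant human α1D receptor in HEK293-cell membranes, 2 h at room temperature, pH 7.4 HEPES/EDTA/gelatin buffer. Filtration and scintillation counting, non-specific binding set with 10 μM BMY7378; four-parameter logistic fit gives pIC50.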",
  "note": "Where a name gives a salt, the structure may show the parent alone.",
  "data": [
    {"smiles": "O=C(CCNCCc1cc(F)cc(F)c1)N(CCNCCc1ccc(O)c2[nH]c(=O)sc12)C1CCCCCC1", "note": "[Example 58, N^1-Cycloheptyl-N^3-[2-(3,5-difluorophenyl)ethyl]-N^1-(2-{[2-(4-hydroxy-2-oxo-2,3-dihydro-1,3-benzothiazol-7-yl)ethyl]amino}ethyl)-β-alaninamide bis-trifluoroacetic acid salt]", "values": [
      {"measurement": "IC50", "value": 251, "unit": "nM"}
    ]},
    {"smiles": "COc1ccc(CCNCCC(=O)N(CCNCCc2ccc(O)c3[nH]c(=O)sc23)C2CCCCC2)cc1", "note": "[Example 68, N^1-Cyclohexyl-N^1-(2-{[2-(4-hydroxy-2-oxo-2,3-dihydro-1,3-benzothiazol-7-yl)ethyl]amino}ethyl)-N^3-[2-(4-methoxyphenyl)ethyl]-β-alaninamide bis-trifluoroacetic acid salt]", "values": [
      {"measurement": "IC50", "value": 200, "unit": "nM"}
    ]},
    {"smiles": "C[C@H](CNCCC(=O)N(CCNCCc1ccc(O)c2[nH]c(=O)sc12)CC(C)(C)C)c1ccccc1", "note": "[Example 11, N-(2,2-Dimethylpropyl)-N-(2-{[2-(4-hydroxy-2-oxo-2,3-dihydro-1,3-benzothiazol-7-yl)ethyl]amino}ethyl)-N^3-[(2S)-2-phenylpropyl]-β-alaninamide bis-trifluoroacetic acid salt]", "values": [
      {"measurement": "IC50", "value": 501, "unit": "nM"}
    ]},
    {"smiles": "Cc1cccc(CCNCCC(=O)N(CCNCCc2ccc(O)c3[nH]c(=O)sc23)C2CCOCC2)c1", "note": "[Example 25, N-(2-{[2-(4-Hydroxy-2-oxo-2,3-dihydro-1,3-benzothiazol-7-yl)ethyl]amino}ethyl)-N^3-[2-(3-methylphenyl)ethyl]-N-(tetrahydro-2H-pyran-4-yl)-β-alaninamide bis-trifluoroacetic acid salt]", "values": [
      {"measurement": "IC50", "value": 251, "unit": "nM"}
    ]},
    {"smiles": "NS(=O)(=O)c1ccc(CCNCCC(=O)N(CCNCCc2ccc(O)c3[nH]c(=O)sc23)C2CCCCC2)cc1", "note": "[Example 69, N^3-{2-[4-(Aminosulfonyl)phenyl]ethyl}-N^1-cyclohexyl-N^1-(2-{[2-(4-hydroxy-2-oxo-2,3-dihydro-1,3-benzothiazol-7-yl)ethyl]amino}ethyl)-β-alaninamide bis-trifluoroacetic acid salt]", "values": [
      {"measurement": "IC50", "value": 158, "unit": "nM"}
    ]},
    {"smiles": "O=C(CCNCCc1ccc(F)c(F)c1)N(CCNCCc1ccc(O)c2[nH]c(=O)sc12)C1CCCCCC1", "note": "[Example 53, N^1-Cycloheptyl-N^1-[2-(3,4-difluorophenyl)ethyl]-N^1-(2-{[2-(4-hydroxy-2-oxo-2,3-dihydro-1,3-benzothiazol-7-yl)ethyl]amino}ethyl)-β-alaninamide bis-trifluoroacetic acid salt]", "values": [
      {"measurement": "IC50", "value": 126, "unit": "nM"}
    ]},
    {"smiles": "O=C(CCNCCc1ccc(F)c(F)c1)N(CCNCCc1ccc(O)c2[nH]c(=O)sc12)C1CCCCC1", "note": "[Example 73, N^1-Cyclohexyl-N^3-[2-(3,4-difluorophenyl)ethyl]-N^1-(2-{[2-(4-hydroxy-2-oxo-2,3-dihydro-1,3-benzothiazol-7-yl)ethyl]amino}ethyl)-β-alaninamide bis-trifluoroacetic acid salt]", "values": [
      {"measurement": "IC50", "value": 398, "unit": "nM"}
    ]},
    {"smiles": "O=C(CCNCCc1ccc(Cl)c(Cl)c1)N(CCNCCc1ccc(O)c2[nH]c(=O)sc12)C1CCOCC1", "note": "[Example 94, N^3-[2-(3,4-Dichlorophenyl)ethyl]-N-(2-{[2-(4-hydroxy-2-oxo-2,3-dihydro-1,3-benzothiazol-7-yl)ethyl]amino}ethyl)-N-(tetrahydro-2H-pyran-4-yl)-β-alaninamide dihydrobromide salt]", "values": [
      {"measurement": "α1 bind pIC50", "value": 6.2}
    ]},
    {"smiles": "Cc1ccccc1CCNCCC(=O)N(CCNCCc1ccc(O)c2[nH]c(=O)sc12)C1CCOCC1", "note": "[Example 27, N-(2-{[2-(4-Hydroxy-2-oxo-2,3-dihydro-1,3-benzothiazol-7-yl)ethyl]amino}ethyl)-N^3-[2-(2-methylphenyl)ethyl]-N-(tetrahydro-2H-pyran-4-yl)-β-alaninamide bis-trifluoroacetic acid salt]", "values": [
      {"measurement": "IC50", "value": 251, "unit": "nM"}
    ]},
    {"smiles": "O=C(CCNCCc1cccc(C(F)(F)F)c1)N(CCNCCc1ccc(O)c2[nH]c(=O)sc12)C1CCCCCC1", "note": "[Example 82, N^1-Cycloheptyl-N^1-(2-{[2-(4-hydroxy-2-oxo-2,3-dihydro-1,3-benzothiazol-7-yl)ethyl]amino}ethyl)-N^3-{2-[3-(trifluoromethyl)phenyl]ethyl}-β-alaninamide bis-trifluoroacetic acid salt]", "values": [
      {"measurement": "IC50", "value": 251, "unit": "nM"}
    ]},
    {"smiles": "CC(C)(C)CN(CCNCCc1ccc(O)c2[nH]c(=O)sc12)C(=O)CCNCCc1cccc(Cl)c1", "note": "[Example 7, N^3-[2-(3-Chlorophenyl)ethyl]-N-(2,2-dimethylpropyl)-N-(2-{[2-(4-hydroxy-2-oxo-2,3-dihydro-1,3-benzothiazol-7-yl)ethyl]amino}ethyl)-β-alaninamide bis-trifluoroacetic acid salt]", "values": [
      {"measurement": "IC50", "value": 251, "unit": "nM"}
    ]},
    {"smiles": "O=C(CCNCCc1ccc(F)cc1)N(CCNCCc1ccc(O)c2[nH]c(=O)sc12)CC12CC3CC(CC(C3)C1)C2", "note": "[Example 61, N^1-(1-Adamantylmethyl)-N^3-[2-(4-fluorophenyl)ethyl]-N^1-(2-{[2-(4-hydroxy-2-oxo-2,3-dihydro-1,3-benzothiazol-7-yl)ethyl]amino}ethyl)-β-alaninamide bis-trifluoroacetic acid salt]", "values": [
      {"measurement": "IC50", "value": 316, "unit": "nM"}
    ]},
    {"smiles": "O=C(CCNCCc1ccccc1)N(CCNCCc1ccc(O)c2[nH]c(=O)sc12)C1CCSCC1", "note": "[Example 62, N-(2-{[2-(4-Hydroxy-2-oxo-2,3-dihydro-1,3-benzothiazol-7-yl)ethyl]amino}ethyl)-N^3-(2-phenylethyl)-N^1-(tetrahydro-2H-thiopyran-4-yl)-β-alaninamide bis-trifluoroacetic acid salt]", "values": [
      {"measurement": "IC50", "value": 63.1, "unit": "nM"}
    ]},
    {"smiles": "O=C(CCNC[C@H](O)c1ccccc1)N(CCNCCc1ccc(O)c2[nH]c(=O)sc12)C1CCCCC1", "note": "[Example 75, N^1-Cyclohexyl-N^1-(2-{[2-(4-hydroxy-2-oxo-2,3-dihydro-1,3-benzothiazol-7-yl)ethyl]amino}ethyl)-N^3-[(2R)-2-hydroxy-2-phenylethyl]-β-alaninamide bis-trifluoroacetic acid salt]", "values": [
      {"measurement": "IC50", "value": 251, "unit": "nM"}
    ]},
    {"smiles": "O=C(CCNCCc1cc(F)ccc1F)N(CCNCCc1ccc(O)c2[nH]c(=O)sc12)C1CCCCC1", "note": "[Example 79, N^1-Cyclohexyl-N^3-[2-(2,5-difluorophenyl)ethyl]-N^1-(2-{[2-(4-hydroxy-2-oxo-2,3-dihydro-1,3-benzothiazol-7-yl)ethyl]amino}ethyl)-β-alaninamide bis-trifluoroacetic acid salt]", "values": [
      {"measurement": "IC50", "value": 63.1, "unit": "nM"}
    ]},
    {"smiles": "O=C(CCNCCc1ccc2c(c1)OCO2)N(CCNCCc1ccc(O)c2[nH]c(=O)sc12)C1CCCCC1", "note": "[Example 76, N^3-[2-(1,3-Benzodioxol-5-yl)ethyl]-N^1-cyclohexyl-N^1-(2-{[2-(4-hydroxy-2-oxo-2,3-dihydro-1,3-benzothiazol-7-yl)ethyl]amino}ethyl)-β-alaninamide bis-trifluoroacetic acid salt]", "values": [
      {"measurement": "IC50", "value": 158, "unit": "nM"}
    ]},
    {"smiles": "CC(C)(CNCCC(=O)N(CCNCCc1ccc(O)c2[nH]c(=O)sc12)C1CCCC1)c1ccccc1", "note": "[Example 32, N-cyclopentyl-N-(2-{[2-(4-hydroxy-2-oxo-2,3-dihydro-1,3-benzothiazol-7-yl)ethyl]amino}ethyl)-N^3-(2-methyl-2-phenylpropyl)-β-alaninamide bis-trifluoroacetic acid salt]", "values": [
      {"measurement": "IC50", "value": 398, "unit": "nM"}
    ]},
    {"smiles": "O=C(CCNCCc1cccc(OC(F)F)c1)N(CCNCCc1ccc(O)c2[nH]c(=O)sc12)C1CCCCCC1", "note": "[Example 54, N-Cycloheptyl-N^3-{2-[3-(difluoromethoxy)phenyl]ethyl}-N^1-(2-{[2-(4-hydroxy-2-oxo-2,3-dihydro-1,3-benzothiazol-7-yl)ethyl]amino}ethyl)-β-alaninamide bis-trifluoroacetic acid salt]", "values": [
      {"measurement": "IC50", "value": 316, "unit": "nM"}
    ]},
    {"smiles": "CC(C)(C)CN(CCNCCc1ccc(O)c2[nH]c(=O)sc12)C(=O)CCNCCc1ccc(Cl)cc1", "note": "[Example 8, N^3-[2-(4-Chlorophenyl)ethyl]-N-(2,2-dimethylpropyl)-N-(2-{[2-(4-hydroxy-2-oxo-2,3-dihydro-1,3-benzothiazol-7-yl)ethyl]amino}ethyl)-β-alaninamide bis-trifluoroacetic acid salt]", "values": [
      {"measurement": "IC50", "value": 501, "unit": "nM"}
    ]},
    {"smiles": "O=C(CCNCCc1cccc(F)c1)N(CCNCCc1ccc(O)c2[nH]c(=O)sc12)C1CCCCCC1", "note": "[Example 95, N-Cycloheptyl-N^3-[2-(3-fluorophenyl)ethyl]-N-(2-{[2-(4-hydroxy-2-oxo-2,3-dihydro-1,3-benzothiazol-7-yl)ethyl]amino}ethyl)-β-alaninamide dihydromide salt]", "values": [
      {"measurement": "α1 bind pIC50", "value": 6.8}
    ]},
    {"smiles": "O=C(CCNCCc1ccc(Cl)cc1)N(CCNCCc1ccc(O)c2[nH]c(=O)sc12)C1CCCCCC1", "note": "[Example 51, N^3-[2-(4-Chlorophenyl)ethyl]-N^1-cycloheptyl-N^1-(2-{[2-(4-hydroxy-2-oxo-2,3-dihydro-1,3-benzothiazol-7-yl)ethyl]amino}ethyl)-β-alaninamide bis-trifluoroacetic acid salt]", "values": [
      {"measurement": "IC50", "value": 316, "unit": "nM"}
    ]},
    {"smiles": "O=C(CCNCCc1ccccc1Cl)N(CCNCCc1ccc(O)c2[nH]c(=O)sc12)C1CCC(F)(F)CC1", "note": "[Example 46, N^3-[2-(2-Chlorophenyl)ethyl]-N^1-(4,4-difluorocyclohexyl)-N^1-(2-{[2-(4-hydroxy-2-oxo-2,3-dihydro-1,3-benzothiazol-7-yl)ethyl]amino}ethyl)-β-alaninamide bis-trifluoroacetic acid salt]", "values": [
      {"measurement": "IC50", "value": 158, "unit": "nM"}
    ]}
  ]
}
